Reference: PubChem BioAssay AID1963982 (Molecular Pharmacology Branch, DTP, NCI, 2024)
Several values for one entry are separate records, joined by “and”; a condition that tells them apart may be missing. Equal values may be shown once.

Test system: 313798-341-R-J2-PDC spheroids, viability
Experiment: Anticancer human tumor 313798-341-R-J2-PDC patient-derived cervical squamous cell carcinoma cell line growth inhibition [PI3K]
Conditions: spheroids with HUVEC and MSC; for viability, T/C: stronger effect = lower value
Procedure, shortened: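 High-throughput combination screen: PI3K inhibitors crossed with targeted small molecules on complex spheroids of tumor cells, HUVEC and MSCs at 37 degrees C, 5% CO2. Top concentration was at or near clinical Cmax (otherwise 10 microM), with half-log decrements.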

[1] = curve of first compound, second compound 0.0316 µM
[2] = curve of first compound, second compound 0.1 µM
[3] = curve of first compound, second compound 0.316 µM
[4] = curve of first compound, second compound 1 µM
[5] = second compound 0.0316 µM, first compound 0.0316 µM
[6] = second compound 0.0316 µM, first compound 0.1 µM
[7] = second compound 0.0316 µM, first compound 0.316 µM
[8] = second compound 0.0316 µM, first compound 1 µM
[9] = second compound 0.0316 µM, first compound 3.16 µM
[10] = second compound 0.0316 µM, first compound 10 µM
[11] = second compound 0.1 µM, first compound 0.0316 µM
[12] = second compound 0.1 µM, first compound 0.1 µM
[13] = second compound 0.1 µM, first compound 0.316 µM
[14] = second compound 0.1 µM, first compound 1 µM
[15] = second compound 0.1 µM, first compound 3.16 µM
[16] = second compound 0.1 µM, first compound 10 µM
[17] = second compound 0.316 µM, first compound 0.0316 µM
[18] = second compound 0.316 µM, first compound 0.1 µM
[19] = second compound 0.316 µM, first compound 0.316 µM
[20] = second compound 0.316 µM, first compound 1 µM
[21] = second compound 0.316 µM, first compound 3.16 µM
[22] = second compound 0.316 µM, first compound 10 µM
[23] = second compound 1 µM, first compound 0.0316 µM
[24] = second compound 1 µM, first compound 0.1 µM
[25] = second compound 1 µM, first compound 0.316 µM
[26] = second compound 1 µM, first compound 1 µM
[27] = second compound 1 µM, first compound 3.16 µM
[28] = second compound 1 µM, first compound 10 µM
[29] = compound alone, run of 04/24/2023
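Further: spheroids exposed to compounds for seven days.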
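Wherever viability, T/C is given: 100% = DMSO vehicle control viability.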

CC(Cn1ccc(-c2ccc(C#N)c(Cl)c2)n1)NC(=O)c1cc(C(C)O)[nH]n1 (stereo not drawn) + Cc1nc(NC(=O)N2CCCC2C(N)=O)sc1-c1ccnc(C(C)(C)C(F)(F)F)c1 was tested, and the IC50 [1] was greater than 10000 nM, the IC50 [2] was greater than 10000 nM and the IC50 [3] was greater than 10000 nM. It also gave an IC50 [4] greater than 10000 nM, an IC50 (curve of first compound, second compound 3.16 µM) greater than 10000 nM and an IC50 (curve of first compound, second compound 10 µM) of less than 31.6 nM. The viability, T/C [5] was 103%, the viability, T/C [6] was 93.9% and the viability, T/C [7] was 97.6%. It also gave a viability, T/C [8] of 99.9%, a viability, T/C [9] of 111% and a viability, T/C [10] of 92.1%. The viability, T/C [11] was 114%, the viability, T/C [12] was 109% and the viability, T/C [13] was 103%. For the same compound, the viability, T/C [14] was 113%, the viability, T/C [15] was 114% and the viability, T/C [16] was 103%. For the same compound, the viability, T/C [17] was 114%, the viability, T/C [18] was 104% and the viability, T/C [19] was 118%. It also gave a viability, T/C [20] of 114%, a viability, T/C [21] of 108% and a viability, T/C [22] of 98.4%. The viability, T/C [23] was 96.7%, the viability, T/C [24] was 93.6% and the viability, T/C [25] was 94.8%. It also gave a viability, T/C [26] of 85.2%, a viability, T/C [27] of 97.6% and a viability, T/C [28] of 84.1%. For the same compound, the viability, T/C (second compound 3.16 µM, first compound 0.0316 µM) was 67.5%, the viability, T/C (second compound 3.16 µM, first compound 0.1 µM) was 57.3% and the viability, T/C (second compound 3.16 µM, first compound 0.316 µM) was 66.1%. For the same compound, the viability, T/C (second compound 3.16 µM, first compound 1 µM) was 61.7%, the viability, T/C (second compound 3.16 µM, first compound 3.16 µM) was 59.1% and the viability, T/C (second compound 3.16 µM, first compound 10 µM) was 52.5%. The viability, T/C (second compound 10 µM, first compound 0.0316 µM) was 37.2%, the viability, T/C (second compound 10 µM, first compound 0.1 µM) was 33.2% and the viability, T/C (second compound 10 µM, first compound 0.316 µM) was 39.3%. The viability, T/C (second compound 10 µM, first compound 1 µM) was 36.3%, the viability, T/C (second compound 10 µM, first compound 3.16 µM) was 37.4% and the viability, T/C (second compound 10 µM, first compound 10 µM) was 30.9%.

In the case of Cn1ncnc1[C@H]1c2n[nH]c(=O)c3cc(F)cc(c23)N[C@@H]1c1ccc(F)cc1, the viability, T/C (compound 0.001 µM) is reported as 94.9% [middle of 4 runs], the viability, T/C (compound 0.00316 µM) is reported as 94.7% [middle of 4 runs] and the viability, T/C (compound 0.01 µM) is reported as 104% (2×) and 88.8% and 114%. For the same compound, the viability, T/C (compound 0.0316 µM) was 95.9% [middle of 4 runs], the viability, T/C (compound 0.1 µM) was 89% [middle of 4 runs] and the IC50 (curve of compound) was greater than 100 nM.

In the case of CC(Nc1ccc2c(c1)OCCn1cc(N3C(=O)OCC3C(F)F)nc1-2)C(N)=O (stereo not drawn), the viability, T/C (compound 0.00316 µM) is reported as 96.5% [middle of 8 runs], the viability, T/C (compound 0.01 µM) is reported as 103% [middle of 8 runs] and the viability, T/C (compound 0.0316 µM) is reported as 103% [middle of 8 runs]. For the same compound, the viability, T/C (compound 0.316 µM) was 76.6% [middle of 8 runs], the viability, T/C (compound 1 µM) was 53.9% [middle of 8 runs] and the IC50 [29] was 523 nM and 908 nM and > 1000 nM.

In the case of Cn1ncc(Cl)c1-c1cc(C(=O)NC(CN)Cc2cccc(F)c2)sc1Cl (stereo not drawn) + CC(Nc1ccc2c(c1)OCCn1cc(N3C(=O)OCC3C(F)F)nc1-2)C(N)=O, the IC50 (curve of first compound, second compound 0.00316 µM) is reported as 970 nM, the IC50 (curve of first compound, second compound 0.01 µM) is reported as 1040 nM and the IC50 [1] is reported as 889 nM. It also gave an IC50 [2] of 822 nM, an IC50 [3] of 535 nM and an IC50 [4] of 190 nM. The viability, T/C (second compound 0.00316 µM, first compound 0.0316 µM) was 117%, the viability, T/C (second compound 0.00316 µM, first compound 0.1 µM) was 91.3% and the viability, T/C (second compound 0.00316 µM, first compound 0.316 µM) was 94.2%. It also gave a viability, T/C (second compound 0.00316 µM, first compound 1 µM) of 48.3%, a viability, T/C (second compound 0.00316 µM, first compound 3.16 µM) of 34.4% and a viability, T/C (second compound 0.00316 µM, first compound 10 µM) of 38.6%. For the same compound, the viability, T/C (second compound 0.01 µM, first compound 0.0316 µM) was 97.3%, the viability, T/C (second compound 0.01 µM, first compound 0.1 µM) was 102% and the viability, T/C (second compound 0.01 µM, first compound 0.316 µM) was 75.5%. The viability, T/C (second compound 0.01 µM, first compound 1 µM) was 52.4%, the viability, T/C (second compound 0.01 µM, first compound 3.16 µM) was 38.1% and the viability, T/C (second compound 0.01 µM, first compound 10 µM) was 35.6%. For the same compound, the viability, T/C [5] was 102%, the viability, T/C [6] was 107% and the viability, T/C [7] was 84.5%. The viability, T/C [8] was 46.8%, the viability, T/C [9] was 35.1% and the viability, T/C [10] was 34.9%. The viability, T/C [11] was 114%, the viability, T/C [12] was 95.7% and the viability, T/C [13] was 67.6%. It also gave a viability, T/C [14] of 47.4%, a viability, T/C [15] of 35.2% and a viability, T/C [16] of 36.8%. For the same compound, the viability, T/C [17] was 74.6%, the viability, T/C [18] was 69.6% and the viability, T/C [19] was 57.9%. For the same compound, the viability, T/C [20] was 41.4%, the viability, T/C [21] was 32.8% and the viability, T/C [22] was 35.7%. The viability, T/C [23] was 59.8%, the viability, T/C [24] was 56.1% and the viability, T/C [25] was 44.7%. It also gave a viability, T/C [26] of 37.2%, a viability, T/C [27] of 28.7% and a viability, T/C [28] of 32.2%.

Cc1nc(NC(=O)N2CCCC2C(N)=O)sc1-c1ccnc(C(C)(C)C(F)(F)F)c1 (stereo not drawn) was tested, and the viability, T/C (compound 0.0316 µM) was 99.9% [middle of 8 runs], the viability, T/C (compound 0.1 µM) was 97.5% [middle of 8 runs] and the viability, T/C (compound 0.316 µM) was 102% [middle of 8 runs]. The viability, T/C (compound 1 µM) was 90.6% [middle of 8 runs], the viability, T/C (compound 3.16 µM) was 59.9% [middle of 8 runs] and the viability, T/C (compound 10 µM) was 36.2% [middle of 8 runs]. The IC50 [29] was 4.93 µM [middle of 8 runs].
